Consider one molecule from patent US11358969B2, “Indole AHR inhibitors and uses thereof” (Ikena Oncology, Inc., priority 2017, dated 2022).

The test system of series [1] is B16-IDO murine melanoma. The series is described as follows: Efficacy study in the mouse melanoma model B16-IDO (Example 1H). As to conditions: B16-IDO in C57BL/6 mice, FIG. 4. The format is in vivo. The method, then: B16-IDO is a murine melanoma carcinoma cell line that has been engineered to overexpress IDO1 (Holmgaard, 2015 Cell Reports). B16-IDO cells were cultured in DMEM supplemented with 10% FBS. 2×10^5 B16-IDO cells in 50 μl PBS were implanted intradermally in 6-8 week old female, C57BL/6 mice. Dosing for the efficacy study starts 7 days post implant: AHR antagonist I-70 was dosed orally, every day (QD) at or 10 mg/kg for 2 weeks. Anti-PD-1 (BioXcell RMP1-14) was administered every 3rd day, intraperitoneally (IP) at 250 μg/mouse for five total doses. Tumors were monitored by caliper measurement every 2-3 days and body weight measured three times per week.

Series [2] concerns CD3/CD28 activated human T cells. Nature of the series: T-Cell Study with I-70 (Example 1F). The format is cell-based. Conditions: human T cells activated with CD3/CD28 tetramer, 24 hours. How it is done: Human T cells were isolated by CD3 negative selection after isolation of PBMCs from blood of human donors via ficoll density gradient centrifugation. One million T cells were activated with 25 uL of CD3/CD28 tetramer (Stemcell) in the presence or absence of I-70 for 24 hours, after which media was removed and stored at −80 C for later cytokine analysis. Cells were then washed 2× with PBS, before isolating RNA according to the manufacturer's instructions for the RNAeasy mini kit (Qiagen).
RNA was converted to cDNA using VILO-IV RT mastermix (Thermofisher), and q-RT-PCR was performed to determine levels of IL-22 (Hs01574154_m1), Cyp1a1 (Hs01054797_g1), and GAPDH (Hs00266705_g1). Data was analyzed using the ddCT method whereby each sample is first normalized to GAPDH housekeeping gene before being normalized to control treatment.
Cytokine levels were determined utilizing the mesoscale discovery (MSD) platform (K15067L-2) and MSD analysis software according to the manufacturer's instructions. IL-22 protein levels are decreased and pro-inflammatory IL-2 protein levels are increased by treatment with I-70, as shown in FIG. 2.

`Cc1cnn2c(NCCc3c[nH]c4ccccc34)cc(-c3cncc(F)c3)nc12` [I-70, 5-(5-Fluoro-3-pyridyl)-N-[2-(1H-indol-3-yl)ethyl]-3-methyl-pyrazolo[1,5-a]pyrimidin-7-amine]: the Tumor growth result in series [1] (I-70 alone, orally QD 10 mg/kg for 2 weeks) is on record as “inhibited”. In addition, the Tumor growth entry in series [1] (I-70 in combination with anti-PD-1 (IP 250 μg/mouse every 3rd day)) is “inhibited”. In addition, in series [2] (MSD platform, FIG. 2), the IL-22 protein levels entry is listed as “decreased” and the “pro-inflammatory IL-2 protein levels” value is “increased”. Moreover, in series [2] (q-RT-PCR, FIG. 1), the “IL22 RNA expression levels” value is given as “inhibited” and the “cyp1a1 RNA expression levels” value was “inhibited”.
